# Values joined by “and” are separate entries in the source; they are usually repeats but may differ in a detail not shown here. Identical values can stand only once. Toxic doses and inconclusive results are not listed.
# Tested on: CD2F1 mice, L1210 leukemia ip, survival T/C
# Test: NCI In Vivo Anticancer Drug Screen. Data for tumor model L1210 Leukemia (intraperitoneal) in CD2F1 (CDF1) mice
# Settings: endpoint: mean survival time, higher = longer survival
# Summary of the method: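 Activity against a transplanted murine tumor was judged by comparing the compound group with a vehicle group. The outcome in the treated animals was divided by that in the controls.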
# [1] = dose: 100.0 mg/kg/injection, schedule: Q01DX009 (ip), vehicle: saline
# [2] = dose: 100.0 mg/kg/injection, schedule: Q04DX003 (ip), vehicle: other
# [3] = dose: 200.0 mg/kg/injection, schedule: Q01DX009 (ip), vehicle: saline
# [4] = dose: 200.0 mg/kg/injection, schedule: Q04DX003 (ip), vehicle: other
# [5] = dose: 400.0 mg/kg/injection, schedule: Q01DX009 (ip), vehicle: saline
# [6] = dose: 400.0 mg/kg/injection, schedule: Q04DX003 (ip), vehicle: other
structure (smiles),measurement,setting,value
Cc1ccc(/C=C2\CC(C)(C)c3ccccc3C2=O)cc1,T/C,[1],96 % of control
same,T/C,[2],104 % of control
same,T/C,[3],94 % of control
same,T/C,[4],100 % of control
same,T/C,[5],94 % of control
same,T/C,[6],105 % of control
CN(C)/C(=C\C(=O)c1ccccc1)c1ccccc1,T/C,"dose: 25.0 mg/kg/injection, schedule: Q04DX003 (ip), vehicle: saline with Tween-80",104 % of control
same,T/C,"dose: 50.0 mg/kg/injection, schedule: Q04DX003 (ip), vehicle: saline with Tween-80",108 % of control
same,T/C,"dose: 100.0 mg/kg/injection, schedule: Q04DX003 (ip), vehicle: saline with Tween-80",93 % of control
Cc1ccnc(=S)[nH]1.[Pd],T/C,"dose: 3.12 mg/kg/injection, schedule: Q04DX003 (ip), vehicle: saline",98 % of control
same,T/C,"dose: 6.25 mg/kg/injection, schedule: Q04DX003 (ip), vehicle: saline",102 % of control
same,T/C,"dose: 12.5 mg/kg/injection, schedule: Q04DX003 (ip), vehicle: saline",98 % of control
same,T/C,"dose: 25.0 mg/kg/injection, schedule: Q04DX003 (ip), vehicle: saline",98 % of control
same,T/C,"dose: 50.0 mg/kg/injection, schedule: Q04DX003 (ip), vehicle: saline",102 % of control
same,T/C,"dose: 100.0 mg/kg/injection, schedule: Q04DX003 (ip), vehicle: saline",102 % of control
same,T/C,"dose: 200.0 mg/kg/injection, schedule: Q04DX003 (ip), vehicle: saline",104 % of control
O=C(O)CCCc1ccc(Oc2ccccc2)cc1,T/C,"dose: 100.0 mg/kg/injection, schedule: Q01DX009 (ip), vehicle: other",94 % of control
same,T/C,[2],106 % of control
same,T/C,"dose: 200.0 mg/kg/injection, schedule: Q01DX009 (ip), vehicle: other",95 % of control
same,T/C,[4],93 % of control
same,T/C,"dose: 400.0 mg/kg/injection, schedule: Q01DX009 (ip), vehicle: other",96 % of control
same,T/C,[6],95 % of control
O=c1cnn(C2OC(CO)C(O)C2O)c(=O)[nH]1 (stereo unspecified),T/C,"dose: 12.5 mg/kg/injection, schedule: Q03HX024 (ip), vehicle: saline",119 % of control
same,T/C,"dose: 50.0 mg/kg/injection, schedule: Q01DX005 (ip), vehicle: water",115 % of control and 120 % of control
same,T/C,"dose: 50.0 mg/kg/injection, schedule: Q03HX024 (ip), vehicle: saline",91 % of control
same,T/C,"dose: 100.0 mg/kg/injection, schedule: Q01DX001 (ip), vehicle: saline",105 % of control
same,T/C,"dose: 100.0 mg/kg/injection, schedule: Q01DX005 (ip), vehicle: water",117 % of control and 121 % of control and 106 % of control
same,T/C,"dose: 100.0 mg/kg/injection, schedule: Q01DX009 (ip), vehicle: distilled water + Tween-80",119 % of control
same,T/C,[1],122 % of control
same,T/C,"dose: 143.0 mg/kg/injection, schedule: Q03HX016 (ip), vehicle: other",122 % of control
same,T/C,"dose: 200.0 mg/kg/injection, schedule: Q01DX001 (ip), vehicle: saline",101 % of control
same,T/C,"dose: 200.0 mg/kg/injection, schedule: Q01DX005 (ip), vehicle: water",121 % of control and 123 % of control and 108 % of control
same,T/C,[3],86 % of control
same,T/C,"dose: 300.0 mg/kg/injection, schedule: Q03HX024 (ip), vehicle: other",151 % of control
same,T/C,"dose: 400.0 mg/kg/injection, schedule: Q01DX001 (ip), vehicle: saline",108 % of control
same,T/C,"dose: 400.0 mg/kg/injection, schedule: Q01DX005 (ip), vehicle: water",116 % of control
same,T/C,[5],94 % of control
same,T/C,"dose: 500.0 mg/kg/injection, schedule: Q03HX016 (ip), vehicle: other",152 % of control
same,T/C,"dose: 500.0 mg/kg/injection, schedule: Q03HX024 (ip), vehicle: other",181 % of control
same,T/C,"dose: 800.0 mg/kg/injection, schedule: Q01DX001 (ip), vehicle: saline",110 % of control
same,T/C,"dose: 800.0 mg/kg/injection, schedule: Q01DX005 (ip), vehicle: water",110 % of control
same,T/C,"dose: 800.0 mg/kg/injection, schedule: Q01DX009 (ip), vehicle: distilled water + Tween-80",154 % of control
same,T/C,"dose: 1000.0 mg/kg/injection, schedule: Q03HX016 (ip), vehicle: other",152 % of control
same,T/C,"dose: 1000.0 mg/kg/injection, schedule: Q03HX024 (ip), vehicle: other",167 % of control
same,T/C,"dose: 1600.0 mg/kg/injection, schedule: Q01DX009 (ip), vehicle: distilled water + Tween-80",160 % of control
same,T/C,"dose: 1600.0 mg/kg/injection, schedule: Q01DX009 (ip), vehicle: saline",121 % of control
CC/C=C/CC(=O)NCc1ccc(O)c(OC)c1,T/C,"dose: 100.0 mg/kg/injection, schedule: Q01DX001 (ip), vehicle: saline with Tween-80",101 % of control
same,T/C,"dose: 200.0 mg/kg/injection, schedule: Q01DX001 (ip), vehicle: saline with Tween-80",103 % of control
CC12CCC(=O)C=C1CCC1C2C(=O)CC2(C)C1CCC2(O)C(=O)Cn1cc(F)c(=O)[nH]c1=O (stereo unspecified),T/C,"dose: 12.5 mg/kg/injection, schedule: Q04DX003 (ip), vehicle: Klucel (hydroxypropylcellulose) (HPC)",100 % of control
same,T/C,"dose: 25.0 mg/kg/injection, schedule: Q04DX003 (ip), vehicle: Klucel (hydroxypropylcellulose) (HPC)",103 % of control
same,T/C,"dose: 50.0 mg/kg/injection, schedule: Q04DX003 (ip), vehicle: Klucel (hydroxypropylcellulose) (HPC)",100 % of control
same,T/C,"dose: 100.0 mg/kg/injection, schedule: Q04DX003 (ip), vehicle: Klucel (hydroxypropylcellulose) (HPC)",96 % of control
same,T/C,"dose: 200.0 mg/kg/injection, schedule: Q04DX003 (ip), vehicle: Klucel (hydroxypropylcellulose) (HPC)",94 % of control
NC(=S)N/N=C/c1cc([N+](=O)[O-])ccc1O,T/C,"dose: 50.0 mg/kg/injection, schedule: Q01DX009 (ip), vehicle: Klucel (hydroxypropylcellulose) (HPC)",113 % of control
same,T/C,"dose: 100.0 mg/kg/injection, schedule: Q01DX009 (ip), vehicle: Klucel (hydroxypropylcellulose) (HPC)",97 % of control
same,T/C,"dose: 200.0 mg/kg/injection, schedule: Q01DX009 (ip), vehicle: Klucel (hydroxypropylcellulose) (HPC)",101 % of control

# Source: PubChem BioAssay AID256 (DTP/NCI, 2004)
